Assay results reported in ChEMBL document CHEMBL1130770, “Solid phase synthesis of benzylamine-derived sulfonamide library” (Bioorg Med Chem Lett, 1998).

These compounds were tested against Prothrombin (Homo sapiens, UniProt P00734) (assay: Inhibition constant was evaluated for inhibitory activity against the blood coagulant thrombin).

Compound	Ki [nM]
CC(C)N(C)C(=O)[C@H](Cc1ccc(CN)cc1)NS(=O)(=O)c1ccc2ccccc2c1	600
NCc1ccc(C[C@H](NS(=O)(=O)c2ccc3ccccc3c2)C(=O)NCc2ccccc2)cc1	97200
CN(C)C(=O)[C@H](Cc1ccc(CN)cc1)NS(=O)(=O)c1ccc2ccccc2c1	3060
CC(C)NC(=O)[C@H](Cc1ccc(CN)cc1)NS(=O)(=O)c1ccc2ccccc2c1	31700
CN(C(=O)[C@H](Cc1ccc(CN)cc1)NS(=O)(=O)c1ccc2ccccc2c1)C1CCCC1	50
NCc1ccc(C[C@H](NS(=O)(=O)c2ccc3ccccc3c2)C(=O)N2CCCC2)cc1	200
NCc1ccc(C[C@H](NS(=O)(=O)c2ccc3ccccc3c2)C(=O)N2CCC(O)CC2)cc1	15600
CCCc1ccc(S(=O)(=O)N[C@@H](Cc2ccc(CN)cc2)C(=O)N(C)C2CCCC2)cc1	10
